Laboratory results: article PMC10117910, “Recombinant production, purification, and biochemical characterization of a novel L-lactate dehydrogenase from Bacillus cereus NRC1 and inhibition study of mangiferin” (Frontiers in Bioengineering and Biotechnology, 2023)

How the values were obtained:
[1] = target: T1, L-lactate dehydrogenase (Bc-LDH) (Bacillus cereus, UniProt Q81EP4); test: LDH activity assay (NADH absorbance at […] nm) of purified enzyme; Lineweaver-Burk and Dixon plots; type: biochemical
T1 construct: gene ldh1; full-length, 314 amino acids (GenBank BDI00612.1), recombinant from pET28-Bc-LDH in E. coli BL21 (DE3)
T1 sequence (Q81EP4 whole entry): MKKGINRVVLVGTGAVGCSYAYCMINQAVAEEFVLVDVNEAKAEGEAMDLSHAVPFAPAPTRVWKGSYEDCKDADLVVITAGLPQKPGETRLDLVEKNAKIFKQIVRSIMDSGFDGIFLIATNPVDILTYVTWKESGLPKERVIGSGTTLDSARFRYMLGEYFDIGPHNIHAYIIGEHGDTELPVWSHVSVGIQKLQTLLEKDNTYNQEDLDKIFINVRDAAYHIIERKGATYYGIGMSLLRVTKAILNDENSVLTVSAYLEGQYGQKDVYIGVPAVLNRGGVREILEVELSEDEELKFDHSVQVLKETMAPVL

[2] = target: Bacillus cereus NRC1 L-lactate dehydrogenase (Bacillus cereus NRC1) (UniProt P0A392); test: SEC; gel filtration on a calibrated Sephacryl S-300 column (142 cm × 1.75 cm i.d.), eluted with 0.02 M phosphate buffer pH 7.5; native mass compared with the subunit mass by SDS-PAGE (35 kDa)

stoichiometry N [2]	Compound	Ki [1] [µM]
	O=c1c2cc(O)c(O)cc2oc2cc(O)c([C@@H]3O[C@H](CO)[C@@H](O)[C@H](O)[C@H]3O)c(O)c12 [mangiferin, 2-β-D-glucopyranosyl-1,3,6,7-tetrahydroxy-9H-xanthen-9-one]	75
4	Bacillus cereus NRC1 L-lactate dehydrogenase (from UniProt P0A392 1-366) (enzyme)	
